Test [1] deals with MDA-MB-231 primary tumors in mice. The test can be described thus: RT-qPCR of resected primary tumors. It is filed as in vivo, mouse. To be noted: MitoQ 20 mg/kg daily oral. As to the method: Total mRNA from MDA-MB-231, SkBr3 and MDA-MB-436 cells treated ±MitoQ for 48 h was extracted using the NucleoSpin RNA Kit (Macherey-Nagel®). Total mRNA from primary tumors was extracted with Tri reagent (Molecular Research Center®, Cat #TR118). mRNAs were quantified by the Qubit BR dsRNA assay kit (Thermo Fisher Scientific®), and mRNA integrity was evaluated on an Agilent® 2100 Bioanalyzer with the RNA 6000 nano kit (Agilent®). It was reverse transcribed in complementary DNA using the High-Capacity cDNA Reverse Transcription Kit (Applied Biosystems®, cat #4368814) according to manufacturer's protocol. Complementary DNA (500 ng) was amplified by real time quantitative PCR (RT-qPCR) using the low ROX SYBR Master Mix dTTP Blue (Eurogentec®) and primers listed in Table 5 and Table 6 on a ViiA 7 Real-Time PCR System (Thermo Fisher Scientific®). Gene expression was normalized to β-actin gene expression.
For spontaneous metastasis assays using human breast cancer cells, MDA-MB-231, SkBr3 or MDA-MB-436 cells were prepared in medium containing 10% growth factor-reduced Matrigel (Corning®, cat #734-11-01). Five weeks-old female Rj:NMRI-Foxnlnu/nu mice (Janvier) were injected with 10^6 cancer cells in 100 μL of solution in the left second mammary fat pad. After tumor take (72 h), mice were daily treated ±20 mg/Kg MitoQ by oral gavage. Tumor size was measured once per week with an electronic caliper. Four weeks after treatment initiation, primary tumors were surgically removed and processed for RT-qPCR. Tumor recurrence was monitored until recurred tumors in the vehicle group reached about […], i.e. 24 days after surgery. At this time point, mice were sacrificed and their lungs collected and fixed in PFA 4% for immunocytochemistry.
On the technique in general: In qPCR the cycle at which signal appears reflects the starting amount.

The test system of test [2] is MDA-MB-231 cells. The test can be described thus: Direct cell counting, MitoQ alone. It is filed as cell-based, human. As to the method: (§1) To probe the effects of MitoQ alone on cell numbers, MDA-MB-231, SkBr3, MDA-MB-436 or MCF10A (2,500-10,000 cells/well) cells were plated in 96-well plates and treated with increasing concentrations of MitoQ. At each time point, the number of cells per well was measured using a SpectraMax i3 spectrophotometer equipped with a MiniMax™ imaging cytometer.

The subject of test [3] is SkBr3 cells. The test can be described thus: Direct cell counting, MitoQ alone. The test is classed as cell-based, human. As to the method: as §1
Test [4] deals with MDA-MB-436 cells. The test can be described thus: Direct cell counting, MitoQ alone. The test is classed as cell-based, human. The following applies: increasing doses of MitoQ (0 to 500 nM). The procedure: as §1
For test [5], the system named is MDA-MB-231 cells. The test can be described thus: Cell invasion, Boyden chamber. The test is classed as cell-based, human. The following applies: MitoQ 100 nM, 48 h. The procedure: (§2) Cell chemotaxis was assayed in a 48-well micro-chemotaxis chamber (Neuroprobe® AP48) with polycarbonate porous membrane (8-μm diameter, Neuroprobe® PFB8) coated with 5 μg/mL of fibronectin, according to manufacturer's instructions. Briefly, MDA-MB-231 (20,000 cells/well), SkBr3 (40,000 cells/well) or MDA-MB-436 (80,000 cells/well) cells were seeded in the upper compartment in culture media deprived of FBS, and 0.2% (v/v) FBS-containing medium (for MDA-MB-231 and MDA-MB-436 cells) or 10% (v/v) FBS-containing medium supplemented with 10 ng/mL of human EGF (PrepoTech®, cat #AF-100-15) (for SkBr3 cells) were used as chemo-attractants. Cells were allowed to invade through the membrane overnight. Membranes were then washed with PBS, fixed in methanol, and stained with crystal violet (0.23% v/v). Pictures were acquired under an Axiovert™ 40 CFL microscope (Zeiss®) equipped with a MRC camera (Zeiss®). Quantification was performed using the Image J software.

Test [6] relates to SkBr3 cells. The test can be described thus: Cell invasion, Boyden chamber. The test is classed as cell-based, human. To be noted: MitoQ 100 nM, 48 h. The procedure:
as §2

For test [7], the system named is MDA-MB-436 cells. The test can be described thus: Cell invasion, Boyden chamber. The following applies: MitoQ 100 nM, 48 h. The test is classed as cell-based, human. As to the method:
as §2

Test [8] has as its system MDA-MB-231 cells. The test can be described thus: Glucose consumption and lactate production, enzymatic assays on CMA600. The test is classed as cell-based, human. To be noted: 48 h. As to the method: (§3) Glucose and lactate concentrations were measured in cell supernatants collected after 48 h of culture ±MitoQ, using specific enzymatic assays on a CMA600 analyzer (Aurora Borealis®), as previously described in Sonveaux et al. (J Clin Invest; 2008; 118, 3930-3942). All data were normalized by total protein content (Bio-Rad® Protein Assay).

For test [9], the system named is SkBr3 cells. Described as above. It is filed as cell-based, human. The following applies: indicated doses of MitoQ, 48 h. As to the method:
as §3

In test [10] the test system is MCF10A normal breast epithelial cells. The test can be described thus: Mitochondrial superoxide, EPR with MitoTEMPO-H ±PEG-SOD2. The test is classed as cell-based, human. To be noted: MitoQ 100 nM, 48 h. As to the method: Mitochondrial superoxide levels were determined using electron paramagnetic resonance (EPR) with MitoTEMPO-H as a specific mitochondrial superoxide probe ±PEG-SOD2 to specifically assign signals to mitochondrial superoxide. EPR measurements were performed using a Bruker EMX-Plus spectrometer, operating in X-band (9.85 GHz) and equipped with a PremiumX ultra low noise microwave bridge and a SHQ high sensitivity resonator. Typical settings were: microwave power: 20 mW; attenuation: 10 dB; modulation frequency: 100 kHz; modulation amplitude: 0.1 mT; time constant: 20.48 ms; conversion time: 22.58 ms; sweep width: 0.15 mT. Briefly, MDA-MB-231, SkBr3, MCF10A or MDA-MB-436 cells were treated ±MitoQ for 48 h, harvested and resuspended in PBS at 2×10^6 cells/mL. The experimental mixture was prepared with cell suspension, 1 mM DTPA and 150 μM MitoTEMPO-H. It was then aspirated into a gas-permeable polytetrafluoroethylene (PTFE) tubing that was placed in a quartz tube opened at both ends. The tube was directly inserted inside the EPR cavity that was heated at 310° K with air during all experiments. […] Net superoxide production was calculated by subtracting the double integration values of the […] with PEG-SOD2 to the control value at timepoint 15 min.

On to `COC1=C(OC)C(=O)C(CCCCCCCCCC[P+](c2ccccc2)(c2ccccc2)c2ccccc2)=C(C)C1=O` [MitoQ], for which the “tumor samples in which PSAT1 expression was induced” value in test [1] is 100%. Further, in [1] (tumors resected day +32), the “PHGDH-1 transcript upregulated in response to MitoQ: Validated in vivo” value is “+ (Repressed or induced by ≥2-fold with P < 0.01 and MDA-MB-231 primary tumors in mice.)”; the “PSAT1 transcript upregulated in response to MitoQ: Validated in vivo” value was “+ (Repressed or induced by ≥2-fold with P < 0.01 and MDA-MB-231 primary tumors in mice.)”; the “SERPINE1 transcript upregulated in response to MitoQ: Validated in vivo” value is “+ (Repressed or induced by ≥2-fold with P < 0.01 and MDA-MB-231 primary tumors in mice.)”; the “SLC7A11 transcript upregulated in response to MitoQ: Validated in vivo” value is “+ (Repressed or induced by ≥2-fold with P < 0.01 and MDA-MB-231 primary tumors in mice.)”. Moreover, the “TXNRD1 transcript upregulated in response to MitoQ: Validated in vivo” value in test [1] (tumors resected day +32) was “+ (Repressed or induced by ≥2-fold with P < 0.01 and MDA-MB-231 primary tumors in mice.)”. In [1] (Mus musculus, MDA-MB-231, P<0.01, read-out: fold induction of PHGDH-1, SLC7A11, SERPINE1, TXNRD1 and PSAT1 (each independently)), the fold induction at 20 mg/kg was at least 2. Besides, the “MitoQ dose starting from which cell number is reduced” value in test [2] (doses 0 to 500 nM) is on record as at least 500 nM. Besides, the “cell numbers, dose dependence” value in [2] (increasing doses of MitoQ) is on record as “Dose-dependent decreases”. For the same molecule, the “MitoQ dose from which cell numbers started to decrease” value in [3] (doses 0 to 500 nM) was at least 250 nM. Also, in [3] (increasing doses of MitoQ), the “cell numbers, dose dependence” value is given as “Dose-dependent decreases”. Moreover, the cell numbers result in test [4] was “dose-dependently reduced”. Further, the invasive capability result in test [5] is on record as “highly significantly reduced”. For the same molecule, the invasive capability result in test [6] was “highly significantly reduced”. Also, the cell invasion entry in [7] is listed as “inhibited”. Also, in [8] (MitoQ 100 nM), the “glycolytic rate (glucose consumption, lactate production)” value is on record as “increasing”. In addition, the “glycolytic compensation with increasing dose” value in test [8] (indicated doses of MitoQ) is “saturated”. Moreover, the “glycolytic compensation with increasing dose” value in test [9] is reported as “saturated”. For the same molecule, in test [10], the mitochondrial superoxide production entry is listed as “not affected”.

The values are drawn from US20250270648A1, “MOLECULAR SIGNATURE FOR ASSESSING THE RESPONSIVENESS OF CANCER TO MITOCHONDRIA-TARGETED ANTIOXIDANTS” (UNIVERSITÉ CATHOLIQUE DE LOUVAIN, priority 2021, published 2025).
